HELM strings list units from the 5' end as sugar, base in round brackets, then linkage (d deoxyribose, r ribose, m 2'-O-methyl, p phosphodiester). Strings are as the collection lists them; they lack the last nucleoside at the 3' end of the tested compound. [moe] = 2'-O-(2-methoxyethyl) (MOE); [sp] = phosphorothioate linkage; [m5C] = 5-methylcytosine

The target in this data set is PRNP. In words: mouse, dose not given. The conditions noted are these: ASO.
In turn, “RNA1{[moe]([m5C])[sp].[moe](A)p.[moe](G)p.[moe](T)p.[moe](T)[sp].d(T)[sp].d(T)[sp].d(T)[sp].d([m5C])[sp].d([m5C])[sp].d([m5C])[sp].d([m5C])[sp].d(A)[sp].[moe]([m5C])p.[moe](A)p.[moe](T)[sp].[moe](A)}$$$$ (last 3' nucleoside missing)” gave a 3 h FOB score of 0 score 0-7. “RNA1{[moe]([m5C])[sp].[moe](A)p.[moe](T)p.[moe](T)p.[moe](T)[sp].d(G)[sp].d(A)[sp].d(T)[sp].d(T)[sp].d(T)[sp].d([m5C])[sp].d(A)[sp].d(A)[sp].d(G)[sp].d(T)[sp].[moe]([m5C])p.[moe]([m5C])p.[moe]([m5C])[sp].[moe](A)}$$$$ (last 3' nucleoside missing)” displayed a 3 h FOB score of 3 score 0-7. “RNA1{[moe]([m5C])[sp].[moe](A)p.[moe]([m5C])p.[moe](A)p.[moe]([m5C])p.d(T)[sp].d(G)[sp].d(A)[sp].d([m5C])[sp].d([m5C])[sp].d(A)[sp].d(T)[sp].d(T)[sp].d(T)[sp].[moe](T)p.[moe](T)p.[moe](T)[sp].[moe](A)}$$$$ (last 3' nucleoside missing)”: the 3 h FOB score came to 0 score 0-7. On to “RNA1{[moe]([m5C])[sp].[moe](G)[sp].[moe](T)p.[moe]([m5C])p.[moe]([m5C])p.[moe](A)p.[moe](T)p.d(T)[sp].d(T)[sp].d(T)[sp].d([m5C])[sp].d(T)[sp].d(G)[sp].d(T)[sp].d(G)[sp].d([m5C])[sp].d(T)[sp].[moe](T)p.[moe](T)}$$$$ (last 3' nucleoside missing)”, for which the 3 h FOB score came to 5.5 score 0-7. Substance “RNA1{[moe]([m5C])[sp].[moe](G)p.[moe](G)p.[moe](G)p.[moe](T)[sp].d(T)[sp].d(T)[sp].d(T)[sp].d([m5C])[sp].d(T)[sp].d(T)[sp].d(A)[sp].d(A)[sp].d(A)[sp].d(A)[sp].[moe](T)p.[moe](G)p.[moe](G)[sp].[moe](A)}$$$$ (last 3' nucleoside missing)” had a 3 h FOB score of 2 score 0-7. As to “RNA1{[moe]([m5C])[sp].[moe](G)p.[moe](T)p.[moe](T)p.[moe](G)[sp].d(T)[sp].d(T)[sp].d(G)[sp].d(A)[sp].d(T)[sp].d(T)[sp].d(T)[sp].d(T)[sp].d(T)[sp].d([m5C])[sp].[moe]([m5C])p.[moe](A)p.[moe](G)[sp].[moe](A)}$$$$ (last 3' nucleoside missing)”, the 3 h FOB score stood at 1.75 score 0-7. The substance “RNA1{[moe]([m5C])[sp].[moe](G)p.[moe](T)p.[moe](T)p.[moe]([m5C])[sp].d(A)[sp].d(T)[sp].d([m5C])[sp].d(T)[sp].d(T)[sp].d(A)[sp].d(T)[sp].d(T)[sp].d([m5C])[sp].d([m5C])[sp].[moe]([m5C])p.[moe](A)p.[moe](T)[sp].[moe](T)}$$$$ (last 3' nucleoside missing)” displayed a 3 h FOB score of 1 score 0-7. For the substance “RNA1{[moe]([m5C])[sp].[moe](G)p.[moe](T)p.[moe]([m5C])p.[moe]([m5C])p.[moe](A)p.d(T)[sp].d(T)[sp].d(T)[sp].d(T)[sp].d([m5C])[sp].d(T)[sp].d(G)[sp].d(T)[sp].d(G)[sp].d([m5C])[sp].[moe](T)p.[moe](T)[sp].[moe](T)}$$$$ (last 3' nucleoside missing)”, the 3 h FOB score came out at 6.25 score 0-7. As for “RNA1{[moe]([m5C])[sp].[moe](G)p.[moe](T)p.[moe]([m5C])p.d([m5C])[sp].d(A)[sp].d(T)[sp].d(T)[sp].d(T)[sp].d(T)[sp].d([m5C])[sp].d(T)[sp].d(G)[sp].d(T)[sp].[moe](G)p.[moe]([m5C])p.[moe](T)p.[moe](T)[sp].[moe](T)}$$$$ (last 3' nucleoside missing)”, the 3 h FOB score is 3 score 0-7. The value for “RNA1{[moe]([m5C])[sp].[moe](G)p.[moe](T)p.d([m5C])[sp].d([m5C])[sp].d(A)[sp].d(T)[sp].d(T)[sp].d(T)[sp].d(T)[sp].d([m5C])[sp].d(T)[sp].d(G)[sp].[moe](T)p.[moe](G)p.[moe]([m5C])p.[moe](T)p.[moe](T)[sp].[moe](T)}$$$$ (last 3' nucleoside missing)” was 0 score 0-7. As to “RNA1{[moe]([m5C])[sp].[moe](T)[sp].[moe](A)p.[moe](T)p.[moe](G)p.[moe](T)p.[moe](T)p.d(T)[sp].d(T)[sp].d([m5C])[sp].d([m5C])[sp].d(A)[sp].d(G)[sp].d(T)[sp].d(G)[sp].d([m5C])[sp].d([m5C])[sp].[moe]([m5C])p.[moe](A)}$$$$ (last 3' nucleoside missing)”, the 3 h FOB score amounted to 4.75 score 0-7. As for “RNA1{[moe]([m5C])[sp].[moe](T)[sp].[moe]([m5C])p.[moe](T)p.[moe](A)p.[moe](T)p.[moe](G)p.d(T)[sp].d(T)[sp].d(T)[sp].d(T)[sp].d([m5C])[sp].d([m5C])[sp].d(A)[sp].d(G)[sp].d(T)[sp].d(G)[sp].[moe]([m5C])p.[moe]([m5C])}$$$$ (last 3' nucleoside missing)”, the figure is 6 score 0-7; as for “RNA1{[moe]([m5C])[sp].[moe](T)p.[moe](A)p.[moe](G)p.[moe](T)[sp].d(A)[sp].d(A)[sp].d(G)[sp].d(A)[sp].d(A)[sp].d([m5C])[sp].d(T)[sp].d(T)[sp].d(A)[sp].d(T)[sp].[moe]([m5C])p.[moe]([m5C])p.[moe]([m5C])[sp].[moe](A)}$$$$ (last 3' nucleoside missing)”, 0 score 0-7. For the substance “RNA1{[moe]([m5C])[sp].[moe](T)p.[moe](A)p.[moe](T)p.[moe](G)[sp].d(A)[sp].d(T)[sp].d(G)[sp].d(A)[sp].d(T)[sp].d(G)[sp].d(G)[sp].d(T)[sp].d(G)[sp].d([m5C])[sp].[moe](T)p.[moe](T)p.[moe](T)[sp].[moe]([m5C])}$$$$ (last 3' nucleoside missing)”, the 3 h FOB score turned out to be 6 score 0-7.

“RNA1{[moe]([m5C])[sp].[moe](T)p.[moe](A)p.[moe](T)p.[moe](G)[sp].d(T)[sp].d(T)[sp].d(T)[sp].d(T)[sp].d([m5C])[sp].d([m5C])[sp].d(A)[sp].d(G)[sp].[moe](T)p.[moe](G)p.[moe]([m5C])[sp].[moe]([m5C])}$$$$ (last 3' nucleoside missing)” gave a 3 h FOB score of 0 score 0-7. The substance “RNA1{[moe]([m5C])[sp].[moe](T)p.[moe](A)p.[moe](T)p.[moe](G)[sp].d(T)[sp].d(T)[sp].d(T)[sp].d(T)[sp].d([m5C])[sp].d([m5C])[sp].d(A)[sp].d(G)[sp].d(T)[sp].d(G)[sp].[moe]([m5C])p.[moe]([m5C])p.[moe]([m5C])[sp].[moe](A)}$$$$ (last 3' nucleoside missing)” came in with a 3 h FOB score of 3 score 0-7. Consider “RNA1{[moe]([m5C])[sp].[moe](T)p.[moe](A)p.[moe](T)p.[moe](G)p.[moe](T)p.d(T)[sp].d(T)[sp].d(T)[sp].d([m5C])[sp].d([m5C])[sp].d(A)[sp].d(G)[sp].d(T)[sp].d(G)[sp].d([m5C])[sp].[moe]([m5C])p.[moe]([m5C])[sp].[moe](A)}$$$$ (last 3' nucleoside missing)”, for which the 3 h FOB score was determined as 3.75 score 0-7. “RNA1{[moe]([m5C])[sp].[moe](T)p.[moe](A)p.[moe](T)p.[moe](G)p.d(T)[sp].d(T)[sp].d(T)[sp].d(T)[sp].d([m5C])[sp].d([m5C])[sp].d(A)[sp].d(G)[sp].d(T)[sp].[moe](G)[sp].[moe]([m5C])p.[moe]([m5C])p.[moe]([m5C])}$$$$ (last 3' nucleoside missing)” came in with a 3 h FOB score of 0.75 score 0-7.

For the origin of these results see the OligoGym collection.
